{"source": "patent US20050215635A1", "about": "“Diarylheptanoid compounds and uses thereof” (priority 2004, published 2005)", "assay_type_in_all_cases": "cell-based, mouse", "key": {"COX-2 mRNA expression": {"test_system": "COX-2 mRNA expression", "assay": "Relative RT-PCR of COX-2 mRNA expression in RAW 264.7 cells", "settings": "RAW 264.7, 12 hrs", "procedure": "(§1) FIG. 4A and B: Effect of HMP on mRNA expression of iNOS and COX-2. Fig. A, RAW 264.7 cells were incubated in the presence of LPS (0.5 μg/ml) with or without HMP (12.5, 25 μM) for 12 hrs. Total RNA isolated from RAW 264.7 cells after 12 hrs of treatments with LPS alone or with various concentration of HMP was reverse transcribed to make cDNA and 2 μl (for iNOS) or 1 μl (for COX-2) of cDNA was amplified using gene specific primer (Ambion Inc). Ten μl of each PCR reaction was resolved in 2% agarose gel. Lane 1, control; 2. LPS (0.5 μg/ml); 3, LPS+HMP (12.5 μM) and Lane, 4 LPS+HMP (25 μM). Fig. B, Histogram showing densitometric analysis of iNOS and COX-2 mRNA expression. […] This experiment was repeated 3 times separately with similar observation.\n(§2) The RAW 264.7 cells were cultured (10^6/well) in 6 well plate for 24 hrs and then medium was replaced by fresh medium and different concentrations of HMP either alone or in combination of LPS was added and further cultured for 12 hrs. […] Linear range of amplification of iNOS and COX-2 cDNA (2 μl for COX-2 and 1μl for iNOS of RT reaction mixture) was determined using gene specific primers from Ambion Inc (TX, USA), following manufacturer's instruction. The optimum amount of 18S primer and competitor for iNOS and COX-2 gene were also determined as per manufacturer's instruction. […]"}, "iNOS mRNA expression": {"test_system": "iNOS mRNA expression", "assay": "Relative RT-PCR of iNOS mRNA expression in RAW 264.7 cells", "settings": "RAW 264.7, 12 hrs", "procedure": "as §1, §2"}, "p38 MAPK phosphorylation": {"test_system": "p38 MAPK phosphorylation", "assay": "Western blotting of LPS induced phosphorylation of p38 MAPK in RAW 264.7 cells", "settings": "HMP 25 μM + LPS (0.5 μg/ml), RAW 264.7, 30 min and 60 min", "procedure": "FIG. 5A and 5B. Effect of HMP on LPS induced MAPKs activation. FIG. 5A, Total protein lysates of RAW 264.7 were prepared after treatment with HMP and/or LPS for indicated times and 40 μg of protein lysates were resolved and probed for phosphorylated (pp44/42 and pp38) and basal p44/42 and p38, using specific monoclonal antibodies as described in material and methods. FIG. 5B, Integrated density of phosphorylated p44/42 (pp44/42) as measured by Scion software. This experiment was repeated 4 times with similar results.\nAt indicated time points, cells were rapidly washed with ice-cold PBS and solubilized in cold lysis buffer containing 10 mM Tris-base, 5 mM EDTA, 50 mM NaCl, 1% Triton X-100, 5 mM phenylmethylsulfonyl fluoride (PMSF), 2 mM sodium orthovanadate, 10 μg/ml leupeptin, 25 μg/ml aprotinin, 1 mM sodium pyrophosphate, and 20% glycerol. […]\nEqual amount of protein (40 μg) from each sample was loaded on SDS-polyacrylamide electrophoresis gel (8 and 10% separating gels for iNOS and p42/44^MAPK, respectively) and resolved for 1.5 h at 120 V in buffer containing 95 mM Tris-HCl, 960 mM glycine, and 0.5% SDS. […] Specific bands were detected by enhanced chemiluminescence's detection system (Amersham-Pharmacia biotech, NJ, USA) and the membrane was exposed to X-ray film. […]"}}, "data": [{"smiles": "COc1cc(CC/C=C/C(=O)CCc2ccccc2)ccc1O", "note": "[AO-4, 7-(4″-hydroxy-3″-methoxyphenyl)-1-phenyl-hept-4-en-3-one]", "values": [{"measurement": "inhibition of LPS induced COX-2 mRNA expression (densitometry, ratio to 18 S RNA)", "setting": "COX-2 mRNA expression; HMP 12.5 μM + LPS (0.5 μg/ml)", "result": 27.3, "unit": "%"}, {"measurement": "inhibition of LPS induced COX-2 mRNA expression (densitometry, ratio to 18 S RNA)", "setting": "COX-2 mRNA expression; HMP 25 μM + LPS (0.5 μg/ml)", "result": 54.6, "unit": "%"}, {"measurement": "inhibition of LPS induced iNOS mRNA expression (densitometry, ratio to 18 S RNA)", "setting": "iNOS mRNA expression; HMP 12.5 μM + LPS (0.5 μg/ml)", "result": 47.8, "unit": "%"}, {"measurement": "inhibition of LPS induced iNOS mRNA expression (densitometry, ratio to 18 S RNA)", "setting": "iNOS mRNA expression; HMP 25 μM + LPS (0.5 μg/ml)", "result": 75.5, "unit": "%"}, {"measurement": "LPS induced phosphorylation of p38 (in words)", "setting": "p38 MAPK phosphorylation", "result": "no effect"}]}]}
